# Measured values published in PubChem BioAssay AID2060499 (Molecular Pharmacology Branch, DTP, NCI, 2025).
# “And” between values parts separate entries of the source, which are not always exact repeats. Equal entries are not always repeated.
# System: 777334-354-R2-J4-PDC tumor spheroids with HUVEC/MSC, viability
# Assay: Anticancer human tumor 777334-354-R2-J4-PDC patient-derived pancreatic adenocarcinoma cell line growth inhibition [GQUAD]
# Conditions: for viability, T/C: stronger effect = lower value
# Description: DNA G-quadruplex Stabilizer Agents in Combinations in Complex Spheroids
# A high-throughput screen of multi-cell type tumor spheroids was designed to identify active combinations of DNA G-quadruplex stabilizer agents and targeted small molecules. Complex spheroids include a stromal component modeled by human endothelial cells (HUVEC) and fibroblasts modeled by human mesenchymal stem cells (MSCs). The concentration ranges selected for each drug and investigational agent were based upon clinically achievable concentrations if the clinical Cmax of the agent was known.
# Compounds. The drugs and investigational agents: pidnarulex (CX-5461; NSC782164), APTO-253 (NSC789042), BRACO-19 (NSC847499), peposertib (NSC802822), ceralasertib (NSC780249), elimusertib (NSC800525), camonsertib (NSC841442), AZD-1390 (NSC803789), olaparib (NSC753686), talazoparib (NSC767125), ART-558 (NSC835418), sotorasib (NSC818433), MRTX-1133 (NSC836407), SN-38 (NSC673596), topotecan (NSC609699), etoposide (NSC141540), doxorubicin (NSC123127), gemcitabine (NSC613327), 5-fluorouracil (NSC19893), paclitaxel (NSC125973), vemurafenib (NSC761431), panobinostat (NSC761190), R-306465 (JNJ-16241199; NSC773264), adavosertib (NSC754352), TP-3654 (NSC805149), carboplatin (NSC241240), KSQ-4279 (NSC840948), and staurosporine (NSC755774) were obtained from the National Cancer Institute (NCI) Developmental Therapeutics Program Chemical Repository (34). The FDA-approved anticancer drug set is available from the NCI Developmental Therapeutics Program. […] The stock solutions were prepared in dimethyl sulfoxide (DMSO, Sigma-Aldrich, St. Louis, MO, cat. D2650) at 800-fold the tested concentration and stored at -70 degrees C prior to their use. All drugs and investigational agents were tested over a range starting from a high concentration at or near the clinical Cmax and decreasing in half-log increments. If the clinical Cmax for an agent had not been determined, the highest concentration tested was 10 microM.
# 2.3 Cell Culture. All cells were maintained in an incubator at 37 degrees C and 5% CO2 with 95% humidity. The PDC lines were cultured according to standard operating procedures established by the NCI PDMR. All PDCs were thawed and cultured in Matrigel-coated flasks prepared with a working solution of 1X Ham's F-12 nutrient mix, without supplementation (Invitrogen, cat. 11765054), 100 U/mL penicillin-streptomycin (Invitrogen, cat. 15140122), and 2.5% Matrigel (Corning Inc., cat. 354248) for the first three passages. The 857933-349-R-J2-PDC line was cultured in 6C/Colon 1B media, which includes advanced DMEM/F-12 (Thermo Fisher Scientific, cat. 12634028), 10 mM HEPES (Thermo Fisher Scientific, cat. 15630080), 1X GlutaMAX supplement (Thermo Fisher Scientific, cat. 35050061), 0.1 mg/mL primocin (InvivoGen, cat. ant-pm-2), 10% defined fetal bovine serum, heat inactivated (HyClone Laboratories Inc., cat. SH30070.03HI), 50% L-WRN conditioned media (ATCC, cat. CRL-3276), 1.25 mM N-Acetyl-L-cysteine (Sigma-Aldrich, cat. A9165), 10 mM nicotinamide (Sigma-Aldrich, cat. N0636), 1X B-27 supplement (Thermo Fisher Scientific, cat. 17504044), 1X N-2 supplement (Thermo Fisher Scientific, cat. 17502048), 10 microM Y-27632 dihydrochloride (Tocris Bioscience, cat. 1254), and 50 ng/mL human EGF recombinant protein (Thermo Fisher Scientific, cat. PHG0311). The 485176-168-R4-J1-PDC line was cultured in Panc media, which includes all 6C/Colon 1B media components plus 100 ng/mL human FGF-10 (Thermo Fisher Scientific, cat. 100-26), 500 nM SB-431542 (Selleckchem, cat. S1067), and gastrin (Tocris, cat. 3006).
# […]
# [1] = curve of first compound, second compound 0.0316 µM
# [2] = curve of first compound, second compound 0.1 µM
# [3] = curve of first compound, second compound 0.316 µM
# [4] = curve of first compound, second compound 1 µM
# [5] = curve of first compound, second compound 3.16 µM
# [6] = curve of first compound, second compound 10 µM
# [7] = second compound 0.0316 µM, first compound 0.0316 µM
# [8] = second compound 0.0316 µM, first compound 0.1 µM
# [9] = second compound 0.0316 µM, first compound 0.316 µM
# [10] = second compound 0.0316 µM, first compound 1 µM
# [11] = second compound 0.0316 µM, first compound 3.16 µM
# [12] = second compound 0.0316 µM, first compound 10 µM
# [13] = second compound 0.1 µM, first compound 0.0316 µM
# [14] = second compound 0.1 µM, first compound 0.1 µM
# [15] = second compound 0.1 µM, first compound 0.316 µM
# [16] = second compound 0.1 µM, first compound 1 µM
# [17] = second compound 0.1 µM, first compound 3.16 µM
# [18] = second compound 0.1 µM, first compound 10 µM
# [19] = second compound 0.316 µM, first compound 0.0316 µM
# [20] = second compound 0.316 µM, first compound 0.1 µM
# [21] = second compound 0.316 µM, first compound 0.316 µM
# [22] = second compound 0.316 µM, first compound 1 µM
# [23] = second compound 0.316 µM, first compound 3.16 µM
# [24] = second compound 0.316 µM, first compound 10 µM
# [25] = second compound 1 µM, first compound 0.0316 µM
# [26] = second compound 1 µM, first compound 0.1 µM
# [27] = second compound 1 µM, first compound 0.316 µM
# [28] = second compound 1 µM, first compound 1 µM
# [29] = second compound 1 µM, first compound 3.16 µM
# [30] = second compound 1 µM, first compound 10 µM
# [31] = second compound 3.16 µM, first compound 0.0316 µM
# [32] = second compound 3.16 µM, first compound 0.1 µM
# [33] = second compound 3.16 µM, first compound 0.316 µM
# [34] = second compound 3.16 µM, first compound 1 µM
# [35] = second compound 3.16 µM, first compound 3.16 µM
# [36] = second compound 3.16 µM, first compound 10 µM
# [37] = second compound 10 µM, first compound 0.0316 µM
# [38] = second compound 10 µM, first compound 0.1 µM
# [39] = second compound 10 µM, first compound 0.316 µM
# [40] = second compound 10 µM, first compound 1 µM
# [41] = second compound 10 µM, first compound 3.16 µM
# [42] = second compound 10 µM, first compound 10 µM
# 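Note: spheroids exposed to compounds for 7 days before readout.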
structure (smiles),measurement,setting,value
C=CCn1c(=O)c2cnc(Nc3ccc(N4CCN(C)CC4)cc3)nc2n1-c1cccc(C(C)(C)O)n1 + Cc1cnc(CNC(=O)c2c(=O)c3ccc(N4CCCN(C)CC4)nc3n3c2sc2ccccc23)cn1,IC50,[1],619 nM
same,IC50,[2],299 nM
same,IC50,[3],400 nM
same,IC50,[4],360 nM
same,IC50,[5],162 nM
same,IC50,[6],68.3 nM
same,"viability, T/C",[7],88.6%
same,"viability, T/C",[8],75.3%
same,"viability, T/C",[9],64.8%
same,"viability, T/C",[10],37.5%
same,"viability, T/C",[11],37.9%
same,"viability, T/C",[12],38.4%
same,"viability, T/C",[13],78.4%
same,"viability, T/C",[14],67.8%
same,"viability, T/C",[15],50.2%
same,"viability, T/C",[16],37%
same,"viability, T/C",[17],37%
same,"viability, T/C",[18],38.5%
same,"viability, T/C",[19],73%
same,"viability, T/C",[20],72.1%
same,"viability, T/C",[21],52.6%
same,"viability, T/C",[22],39.8%
same,"viability, T/C",[23],39.5%
same,"viability, T/C",[24],40.5%
same,"viability, T/C",[25],65.2%
same,"viability, T/C",[26],64.4%
same,"viability, T/C",[27],51.2%
same,"viability, T/C",[28],40.6%
same,"viability, T/C",[29],42.4%
same,"viability, T/C",[30],38.2%
same,"viability, T/C",[31],62.8%
same,"viability, T/C",[32],56.3%
same,"viability, T/C",[33],44.5%
same,"viability, T/C",[34],37.3%
same,"viability, T/C",[35],39.1%
same,"viability, T/C",[36],35.1%
same,"viability, T/C",[37],57.3%
same,"viability, T/C",[38],46.8%
same,"viability, T/C",[39],38.6%
same,"viability, T/C",[40],32.6%
same,"viability, T/C",[41],36.7%
same,"viability, T/C",[42],27.8%
CC(=O)O[C@H]1C(=O)[C@@]2(C)[C@H]([C@H](OC(=O)c3ccccc3)[C@]3(O)C[C@H](OC(=O)[C@H](O)[C@@H](NC(=O)c4ccccc4)c4ccccc4)C(C)=C1C3(C)C)[C@]1(OC(C)=O)CO[C@@H]1C[C@@H]2O,"viability, T/C",compound 0.0316 µM,78.3% and 74% and 80.3%
same,"viability, T/C",compound 0.1 µM,61.3% and 56% and 57.1%
same,"viability, T/C",compound 0.316 µM,47.8% and 50% and 43.4%
same,"viability, T/C",compound 1 µM,46% and 46.2% and 44.1%
same,"viability, T/C",compound 3.16 µM,45.2% and 46.1% and 39.9%
same,"viability, T/C",compound 10 µM,47.9% and 45% and 51.3%
same,IC50,curve of compound,260 nM and 276 nM and 193 nM
CC1COCCN1c1cc(C2(S(C)(=N)=O)CC2)nc(-c2ccnc3[nH]ccc23)n1 (stereo unspecified) + Cc1cnc(CNC(=O)c2c(=O)c3ccc(N4CCCN(C)CC4)nc3n3c2sc2ccccc23)cn1,IC50,[1],> 10000 nM
same,IC50,[2],> 10000 nM
same,IC50,[3],> 10000 nM
same,IC50,[4],> 10000 nM
same,IC50,[5],> 10000 nM
same,IC50,[6],> 10000 nM
same,"viability, T/C",[7],103%
same,"viability, T/C",[8],85.7%
same,"viability, T/C",[9],113%
same,"viability, T/C",[10],93.9%
same,"viability, T/C",[11],99%
same,"viability, T/C",[12],53.8%
same,"viability, T/C",[13],112%
same,"viability, T/C",[14],84.4%
same,"viability, T/C",[15],94.8%
same,"viability, T/C",[16],80.5%
same,"viability, T/C",[17],88.9%
same,"viability, T/C",[18],53%
same,"viability, T/C",[19],84.1%
same,"viability, T/C",[20],87.4%
same,"viability, T/C",[21],81.2%
same,"viability, T/C",[22],82%
same,"viability, T/C",[23],86.9%
same,"viability, T/C",[24],52.3%
same,"viability, T/C",[25],76.2%
same,"viability, T/C",[26],93.4%
same,"viability, T/C",[27],78.5%
same,"viability, T/C",[28],81.5%
same,"viability, T/C",[29],68.6%
same,"viability, T/C",[30],50.7%
same,"viability, T/C",[31],64.5%
same,"viability, T/C",[32],57.1%
same,"viability, T/C",[33],65%
same,"viability, T/C",[34],58.7%
same,"viability, T/C",[35],69.2%
same,"viability, T/C",[36],54.7%
same,"viability, T/C",[37],56.5%
same,"viability, T/C",[38],59.5%
same,"viability, T/C",[39],53.5%
same,"viability, T/C",[40],55.9%
same,"viability, T/C",[41],57.5%
same,"viability, T/C",[42],44.7%
